Data taken from the NIST ThermoML archive (doi:10.1016/j.jct.2016.03.003).

Assay: mn = molality of the nth substance listed, in mol/kg
Details: 101.3 kPa, Liquid, Vibrating tube method

C[C@H](O)C(=O)[O-].C[C@H](O)C(=O)[O-].C[C@H](O)C(=O)[O-].[Al+3] [aluminium L-lactate] + O
mass density [kg/m3]
Details	278.15 K	283.15 K	288.15 K	293.15 K	298.15 K	303.15 K	308.15 K
m1 = 0.0016	1000.31	1000.07	999.46	998.56	997.37	996	994.37
m1 = 0.0033	1000.54	1000.29	999.69	998.78	997.6	996.22	994.59
m1 = 0.0065	1000.95	1000.7	1000.09	999.18	997.99	996.61	994.98
m1 = 0.016	1002.1	1001.82	1001.21	1000.27	999.09	997.67	996.04
m1 = 0.0281	1003.54	1003.24	1002.6	1001.67	1000.46	999.04	997.4
m1 = 0.0521	1006.26	1005.92	1005.25	1004.3	1003.09	1001.64	999.99
m1 = 0.0995	1011.5	1011.1	1010.37	1009.39	1008.13	1006.64	1004.96
m1 = 0.1996	1022.22	1021.72	1020.89	1019.81	1018.48	1016.92	1015.17
m1 = 0.3045	1032.98	1032.35	1031.43	1030.26	1028.85	1027.23	1025.41
m1 = 0.4021	1042.51	1041.79	1040.77	1039.52	1038.07	1036.37	1034.51
m1 = 0.5059	1052.17	1051.34	1050.24	1048.92	1047.37	1045.62	1043.7
m1 = 0.5991	1060.59	1059.68	1058.5	1057.11	1055.51	1053.7	1051.73
m1 = 0.7147	1070.67	1069.65	1068.38	1066.89	1065.25	1063.36	1061.35
